Source: PMC8216263 (Pharmaceutical Biology, 2021)

Molecular target: T1, OCT2 (Homo sapiens, UniProt O15244)
T1 construct: host or cells: S2 (second portion of proximal tubule) cells
T1 sequence (O15244 1-555): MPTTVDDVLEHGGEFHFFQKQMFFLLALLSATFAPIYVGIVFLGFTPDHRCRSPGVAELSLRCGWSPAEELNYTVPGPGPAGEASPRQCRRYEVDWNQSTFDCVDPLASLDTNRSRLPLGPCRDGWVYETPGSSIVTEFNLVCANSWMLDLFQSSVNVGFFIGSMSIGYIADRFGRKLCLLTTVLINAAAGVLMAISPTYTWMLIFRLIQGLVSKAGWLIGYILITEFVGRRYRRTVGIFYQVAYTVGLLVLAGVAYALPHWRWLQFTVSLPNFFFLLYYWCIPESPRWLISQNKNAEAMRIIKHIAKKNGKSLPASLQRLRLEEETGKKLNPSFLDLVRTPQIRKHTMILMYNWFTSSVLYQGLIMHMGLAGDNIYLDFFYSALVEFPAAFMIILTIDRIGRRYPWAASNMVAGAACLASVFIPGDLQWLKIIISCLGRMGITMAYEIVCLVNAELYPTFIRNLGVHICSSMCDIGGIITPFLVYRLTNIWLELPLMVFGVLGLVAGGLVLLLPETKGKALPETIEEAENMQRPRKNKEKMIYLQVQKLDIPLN
Test: Inhibition of OCT2-mediated 14C-TEA uptake in S2-OCT2 cells
Assay type: cell-based
Settings: GA at 150 and 500 μg/L; PCA 100 to 1000 μg/L; p < 0.05 vs control
Experimental: Cells were cultured in DMEM supplemented with 10% FBS, 100 units/mL penicillin and 100 units/mL streptomycin. […] Cell culture flasks, 24-well cell culture plates, and transwell polycarbonate inserts (12 mm diameter, 0.4 μm pore size) were purchased from Corning Co-star Corp. (Bedford, MA).
The MDCK-OAT1, S2-OAT3, S2-OCT2 and HEK293-OATP1B1 cell lines were utilized in this study. […] Briefly, S2-OAT3, S2-OCT2 and S2-mock cells were trypsinized and uniformly suspended in the culture medium’s designated volume to provide a density of 2.0 × 10^5 cells/mL. A 1.0-mL aliquot of the cell suspension was added into each well of 24-well insert plates. HEK293-OATP1B1, MDCK-OAT1 and their mock cells were seeded in 24-well plates at a density of 1.5 × 10^5 cells/well. […] Three washes terminated the experiment with ice-cold DPBS buffer after removing the incubation buffer. Cells were lysed with 400 μL of […] sodium hydroxide solution. The cell lysate and 3.0 mL of aquasol-2 scintillation fluid were put into a scintillation flask. […] The final concentration of DMSO in the assay was less than 0.1%. All experiments were performed in triplicate.

Structure (SMILES): O=C(O)c1ccc(O)c(O)c1 [PCA, protocatechuic acid]
- effect on OCT2-mediated uptake of 14C-TEA: statistical decline
